Ten molecules from patent US6566047B1, “Method for identifying neurite-growth promoting agents” (The Regents of the University of Colorado, priority 1998, dated 2003) can be followed below.

One assay concerns 12-Lox. The experiment in a line: Eicosanoid (HETE) generation in GCPs. Type of assay: biochemical, rat. How it is done: Eicosanoid Assays. Eicosanoid production in GCPs was measured by metabolic labelling from ^14C-AA or ^14C-AA-PC or by mass spectrometric detection. […] To measure Lox activity directly, without PLA2 involvement, ^3H-AA was the substrate of choice. Reactions were stopped by the addition of chloroform/methanol as for the phospholipase assays. Reaction products were extracted as described by Birkle et al., Neuromethods, vol. 7, pp.227-244 (Humana Press, N.J. 1988), spotted on pre-activated si gel 60 TLC plates, and the plates developed in the upper phase of ethyl acetate/isooctane/acetic acid/water (100:60:20:100). AA and HETEs were identified by co-migration with standards. Appropriate bands were counted by liquid scintillation spectrometry.
For mass-spectrometric (MS) identification of HETEs, two different strategies were pursued:
(1) the appropriate bands from non-labelled samples (PC substrate) were scraped from the TLC plate into ether/methanol (9:1) and stored under N2 at −20° C. Authentic 12(S)-HETE, run alongside in the same manner, was used as a standard. Just prior to analysis, samples were passed over an SPE filter to eliminate silica particles, dried under argon, resuspended in 500 μl ethanol, and injected (at 3 μl/min) into a Finnigan LCQ quadrupole ion trap mass spectrometer (Finnigan MAT, San Jose, Calif.) equipped with an electrospray ionization source. All spectra were acquired at a capillary temperature of 80° C., and ion guide voltages were tuned to maximize the abundance of the deprotonated ion species [M-H]^− in negative mode. In order to generate a spectrum, typically 100 single scans were averaged.
(2) For the other strategy (liquid chromatography/tandem MS, LC/MS^2), the reaction substrate consisted of 3.5 μM AA, with the addition of 3.5 μM deuterated AA (AA-D8) plus 1 μCi ^3H-AA to track reaction products by mass and radioactivity, respectively. Reactions were stopped with ice-cold ethanol, the mixtures kept overnight at −20° C. under N2, and the proteins spun out The supernatants were diluted with H2O and loaded onto 1-ml C18 Sep-Pak columns (Varian). After washing with H2O, eicosanoid was eluted with 2 ml methanol. These samples were resolved by reverse-phase HPLC, and the eluted fractions analyzed by tandem MS on-line (MacMillan and Murphy, 1995). Collision-induced decomposition of HETE isomers produced characteristic fragments that were identified at the second MS stage.

In assay [1] the test system is growth cones in cultures of rat cerebral cortex. The experiment in a line: Growth cone collapse assay in cortical neuron culture. Type of assay: cell-based. Particulars: for effect of inhibitor pretreatment on thrombin- or TRAP-induced growth cone collapse: CDC 10 μM, indomethacin 25 μM, pretreatment 30-45 min. The procedure:
Neuron Culture. Cerebral cortices were dissected from embryonic day 18 Sprague-Dawley rats, cut into explants of less than 1 mm^3 and cultured on either poly-D-lysine-coated coverglass (Assistent) or poly-D-lvsine-coated tissue culture plastic. After 24 hours in B27 neurobasal medium (NB) supplemented with 10% fetal bovine serum, cultures were switched to serum-free B27/NB. The cultures were incubated at 37° C. in 5% CO2 in air. Sprouting neurons were observed readily on day 1. On day 2 or 3, long neurites were present, and the cultures were used for collapse experiments.
Actin Staining. After experimentation, cultures were fixed by slow infusion of fixative (4% paraformaldehyde in 0.1 M phosphate buffer, pH 7.4) into the culture dishes over 10 min (Pfenninger and Maylié-Pfenninger, J. Cell Biol. 89:53-546 (1981)). Thereafter, the fixative was removed by rinsing three times with phosphate-buffered saline (PBS) containing 1 mM glycine. Cultures were then blocked with PBS/1% bovine serum albumin (BSA) and permeabilized by incubation in 0.02% Triton X-100 for 5 min. After three washes in PBS/BSA, cultures were incubated with Texas-Red-conjugated phalloidin for 30 min. Unbound phalloidin was washed away by two PBS rinses, after which the coverglasses were mounted in Slow-Fade Light on microscope slides. Images were recorded on 35 mm film using a Zeiss Axiophot fluorescence microscope equipped with epiillumination.
Growth Cone Collapse Assay. Prior to repellent factor treatment, some of the day 2-3 explant cultures were pre-incubated (at 37° C.) with inhibitor or vehicle control (dimethylsulfoxide or ethanol) for 30-60 min. Cultures were then challenged with a repellent factor or vehicle control for 1-30 min. In some experiments, live cultures were photographed with a Zeiss IM 35 inverted photo microscope equipped with a stage heater, while in others cultures were fixed (as above) after 7 minutes of repellent factor treatment. Growth cone collapse was assessed quantitatively in aldehyde-fixed cultures by grading the degree of collapse in a large number of randomly selected growth cones.

In a further assay the test system is MAT-Lu cells. Description: Pseudopod morphometry (pseudopod length assay), MAT-Lu cells. The format is cell-based, rat. Particulars: for effect of inhibitor pretreatment on AA-induced pseudopod shortening: 15 min pretreatment, indomethacin 10 ηm, NDGA 25 μM, CDC 63 and 126 nM; for effect of agent alone on pseudopod length: typically 15 min exposure. How it is done:
Pseudopod Morphometry. To study the effects of various agents on pseudopods on a short-term basis, we measured pseudopod lengths. Cells plated in 35-mm diameter dishes at low density (1×10^4 per dish) were incubated overnight, tie medium was changed, and the experiments were run four hours later. First, cultures were shifted to serum-free medium, which was replaced one hour later by serum-free medium with or without the various agents (thrombin, AA or HETEs). Care was taken to avoid heat and light inactivation of the eicosanoids. Culture dishes were placed on a Zeiss inverted microscope equipped with a heated stage and viewed with a 16×phase contrast objective lens. Randomly selected fields of the cultures, containing generally about 20 cells each, were recorded, digitized and stored in the computer at the onset of the experiment and at different times thereafter.
In some cases, individual cells were monitored over different periods of time immediately after introduction of the reagent, either by mixing it into the medium or by applying it locally to one end of the cell. Local application was done with a “puffer” system that expels microliter amounts of the desired solution from a micromanipulator-controlled micropipette tip. Cell morphology was recorded, and the captured images were analyzed with a Power Macintosh computer using NIH Image. Cell process length was measured from the center of the nucleus to the end of the process. Characterization of the frequencies of pseudopod lengths, at a fixed time for each of a sequence of concentrations of reagent, utilized a gamma regression model with an inverse quadratic linear predictor (McCullagh and Nelder, Generalized Linear Models 2d ed., pp. 291-292 (Chapman & Hall, 1989), separately fit to each concentration data set. Although no formal goodness-of-fit tests were carried out, in virtually every case there was good visual representation of the pattern of response (see FIG. 14). Most data, however, are shown as whisker-box plots, where the center point represents the 50%, the ends of the box the […] and 75%, and the “whiskers” the 5% and 95% quantiles (e.g., FIG. 11). Statistical comparisons of pseudopod lengths for different treatments were done by standard non-parametric techniques (Wilcoxon Rank Sum or Kruskal-Wallis Tests), as judged appropriate. Polynomial curve fittings were done by standard least-squares techniques. Statistical analyses and graphing were done with the use of SAS procedures: Reg, Phreg, Nparlway and Plot (SAS institute Inc., Cary, N.C.).

A further assay relates to growth cone PLA2. Description: PLA2 assay in growth cone particles (GCPs). Particulars: GCPs. The format is biochemical, rat. The procedure: Growth Cone Particle (GCP) Isolation. GCPs were prepared as described by Pfenninger et al. (1983) and modified by Lohse et al., Dev. Brain Res., 96:38-96 (1996). Briefly, 18-day fetal brains were homogenized in approximately 8 volumes of 0.32 M sucrose containing 1 mM MgCl2, 2 mM TES buffer, pH 7.3, and 3 μM aprotinin. A low-speed supernatant (1,660 g×15 min) was loaded onto a discontinuous sucrose density gradient With steps of 0.83 M and 2.66 M sucrose containing MgCl2 and TES. The gradients were spun to equilibrium at 242,000 g for 40 min in a vertical rotor (Vti50, Beckman). The GCP fraction at the 0.32/0.83 M sucrose interface was collected and used for the experiments described below.
All assays were run in triplicate.

The test system of the next assay is GCPs plated on laminin. Description: GCP release (detachment) assay on laminin. The arrangement: species or system rat. The settings on record: 20 min at 37° C., cytochalasin D 1 μM. How it is done: GCP Release Assay. Petri dishes (35 mm diameter) were coated with 10 μg mouse laminin in PBS by incubation at room temperature for 60 min with shaking. Dishes were subsequently rinsed three times with PBS to remove unbound laminin and then blocked with 5% non-fat dry milk (Carnation) in PBS for 30 min. After three PBS rinses to remove blocking agent, the dishes were ready for the addition of GCPs. […] After incubation for five min at 37° C. this buffered GCP preparation was added to the laminincoated petri dishes. Contact with the substratum was facilitated by centrifuging the dishes for 15 min at 5000 g (Beckman JS5.2 rotor) at room temperature, followed by incubation at 37° C. to allow adhesion site formation. After 10 min, unattached GCPs were removed by rinsing the dishes twice with 1× modified Krebs buffer. Plated GCPs were then challenged with repellent factor (TRAP or thrombin) for 20 min at 37° C. The supernatant containing released GCPs was collected and centrifuged for protein determination of the pellet. GCPs that remained attached after repellent treatment were removed with 5% sodium dodecyl sulfate (SDS) for protein assay. Protein was measured according to Lowry et al. (1951) as modified by Peterson (1983). Results of these experiments were expressed as the percentage of released versus total GCP protein in the assay.

Another assay has as its system protein kinase C (PKC). The experiment in a line: MARCKS phosphorylation by PKC in isolated GCPs. The format is biochemical, rat. Particulars: isolated growth cones. The text has this: FIG. 7A. Thrombin stimulates MARCKS phosphorylation in a 12-LOX-dependent manner. FIG. 7B. 12(S)-HETE stimulates MARCKS phosphorylation by PKC in isolated GCPs. […] Polypeptides were resolved by SDS-PAGE. MARCKS phosphorylation was quantified by phosphorimaging.

“Also recorded” adds a separate entry of the source.

Regarding `CC(Cc1ccc(O)c(O)c1)C(C)Cc1ccc(O)c(O)c1` (stereo not drawn) [NDGA, nordihydroguaiaretic acid], the “effect on conversion of 14C-AA into 12(S)-HETE” value with 12-Lox (60 min, 37° C.) is reported as “blocked”. Further, the “effect of inhibitor pretreatment on thrombin- or TRAP-induced growth cone collapse” value in assay [1] was “protects growth cones from thrombin- or TRAP-induced collapse”. Further, in the assay with MAT-Lu cells, the “effect of inhibitor pretreatment on AA-induced pseudopod shortening” value is “blocked the AA effect completely; also recorded: inhibited the pseudopod shortening” and the “effect of agent alone on pseudopod length” value (“effect of agent alone” for short) is reported as “had no effect on pseudopod lengths”.

In the case of `COc1ccc2c(c1)c(CC(=O)O)c(C)n2C(=O)c1ccc(Cl)cc1` [indomethacin], in the assay on 12-Lox (3H-AA substrate), the “effect of inhibitor on thrombin-stimulated HETE production from AA” value is “not”. The “effect of inhibitor pretreatment on thrombin- or TRAP-induced growth cone collapse” value in assay [1] was “has no effect on control or thrombin treatment of growth cones”. Further, in the assay with MAT-Lu cells, the “effect of inhibitor pretreatment on AA-induced pseudopod shortening” value is “did not influence the AA effect; also recorded: had no effect at all”.

Turning to SFLLRN [TRAP], the “activation of growth cone cPLA2/PLA2” value with growth cone PLA2 is given as “clearly stimulated PLA2, but to a considerably lesser degree”; with growth cone PLA2 (listed as TRAPs), “much less effectively”. The “effect on GCP detachment from laminin” value in the assay on GCPs plated on laminin is listed as “mimics the effect”; with GCPs plated on laminin (listed as TRAPs), “much less effectively”. For the same molecule, in assay [1] (thrombin 100 nM, TRAP (100 mM), 12(S)-HETE 10^−7 M), the “growth cone collapse, agent alone” value is on record as “qualitatively the same effect as thrombin, but the change is not as pronounced”.

“NGF: growth factor whose receptors are present on GCPs”: the “activation of growth cone cPLA2/PLA2” value in the assay on growth cone PLA2 is “only weakly or not at all”.

Take `CCCCC[C@H](O)/C=C/C=C\C/C=C\C/C=C\CCCC(=O)O` [15(S)-HETE, 15(S)-hydroxyeicosatetraenoic acid]: the “effect of agent alone” value in the assay on MAT-Lu cells is “about as active as 12(S)-HETE; also recorded: reduced pseudopod lengths of MAT-Lu cells in a biphasic manner”.

“insulin: insulin from Collaborative Biomedical Products”: the “activation of growth cone cPLA2/PLA2” value in the assay with growth cone PLA2 is “failed to stimulate PLA2 significantly”. For the same molecule, the “net activity (pmol/min/mg protein)” value with growth cone PLA2 (Table 3c, substrate PI, BDNF 100, IGF-1 0.75, insulin 1, thrombin 200 nM, control 159 ± 6.2) turned out to be 158 ± 8.4 pmol/min/mg protein.

As for `CCCCC/C=C\C[C@@H](O)/C=C/C=C\C/C=C\CCCC(=O)O` [12(R)-HETE], the “stimulation of MARCKS and GAP43 phosphorylation” value with protein kinase C (PKC) is listed as “not”. The “effect of agent alone” value with MAT-Lu cells was “essentially inactive; also recorded: small reduction in pseudopod length”.

With `CC(=O)C(C)=NO` [BDM, 2,3-butanedione monoxime], the “effect on GCP detachment from laminin” value with GCPs plated on laminin is recorded as “caused considerable release of GCPs by themselves”.

For `C=C1[C@@H](C)[C@H]2[C@H](Cc3ccccc3)NC(=O)[C@]23[C@H](OC(C)=O)/C=C/[C@@](C)(O)C(=O)[C@@H](C)C/C=C/[C@H]3[C@@H]1O` [cytochalasin D], in the assay on GCPs plated on laminin, the “effect on GCP detachment from laminin” value is listed as “caused considerable release of GCPs by themselves”.

`CCCCC/C=C\C/C=C\C/C=C\C=C\[C@@H](O)CCCC(=O)O` [5(S)-HETE]: the “effect of agent alone” value in the assay with MAT-Lu cells is “essentially inactive; also recorded: had no effect on pseudopod length”.
